Values after ≈ are worked out from the molar mass of the structure shown.
Assays:
[1] = test system: C. albicans ATCC 64124 (strain B); assay: microbe, parasite or virus in culture; type: cell-based, Candida albicans; settings: strain B; compounds 1-4n and AmB; 48 h, RPMI 1640
Outline: (§1)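 A modified CLSI M27-A3 protocol is used, with final compound levels from 12.5 to 0.02 μg/mL in two-fold steps. Cells are incubated at 5×10^3 CFU/mL in buffered RPMI 1640 at 35° C for 48 h.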

[2] = test system: C. albicans ATCC 90819(R) (strain D); assay: microbe, parasite or virus in culture; type: cell-based, Candida albicans; settings: strain D; compounds 1-4n and AmB; 48 h, RPMI 1640
Outline: as §1

[3] = test system: C. albicans ATCC MYA-1003(R) (strain G); assay: microbe, parasite or virus in culture; type: cell-based, Candida albicans; settings: strain G; compounds 1-4n and AmB; 48 h, RPMI 1640
Outline: as §1

[4] = test system: C. albicans ATCC MYA-1237(R) (strain F); assay: microbe, parasite or virus in culture; type: cell-based, Candida albicans; settings: strain F; compounds 1-4n and AmB; 48 h, RPMI 1640
Outline: as §1

[5] = test system: Candida albicans ATCC 10231 (strain A); assay: Antifungal MIC determination (CLSI M27-A3, 96-well); type: cell-based; settings: strain A; compounds 1-4n and AmB; 48 h, RPMI 1640
Outline: as §1

[6] = test system: Candida glabrata ATCC 2001 (strain H); assay: as above; type: cell-based; settings: strain H; compounds 1-4n and AmB; 48 h, RPMI 1640
Outline: as §1

[7] = test system: Candida krusei ATCC 6258 (strain I); assay: as above; type: cell-based; settings: strain I; compounds 1-4n and AmB; 48 h, RPMI 1640
Outline: as §1

[8] = test system: Candida parapsilosis ATCC 22019 (strain J); assay: as above; type: cell-based; settings: strain J; compounds 1-4n and AmB; 48 h, RPMI 1640
Outline: as §1

[9] = test system: J774A.1 cell line; settings: for cell death: J774, 10 μg/mL, 24 h
Procedure: The human embryonic kidney cell line HEK-293 (ATCC CRL-1573) and the murine macrophage cell line J774A.1 (ATCC TIB-67) were kindly provided by Dr. Matthew S. Gentry and Dr. David J. Feola (University of Kentucky, Lexington, Ky., USA), respectively. The HEK-293 cell line was grown in Dulbecco's Modified Eagle's Medium (DMEM) (ATCC, Manassas, Va., USA) with 10% fetal bovine serum (FBS) (ATCC, Manassas, Va., USA) and 1% Pen/Strep (ATCC, Manassas, Va., USA). The J774A.1 cell line was grown under the same conditions, except that the medium used was a different type of DMEM (catalog #30-2002, ATCC, Manassas, Va., USA). The HEK-293 cell line was passaged by trypsinization with 0.05%-trypsin-0.53 mM EDTA (ATCC, Manassas, Va., USA). The J774A.1 cell line was passaged mechanically by cell scrapers (ATCC, Manassas, Va., USA). Cell confluency was observed by using a Nikon Eclipse TS100 microscope (Minato, Tokyo, Japan).
Mammalian cytotoxicity assays were performed as previously described with minor modifications (FIG. 4). The HEK-293 and J774A.1 cell lines were grown in various Dulbecco's Modified Eagle's Medium (DMEM) with 10% fetal bovine serum (FBS) and 1% Pen/Strep at 37° C. with 5% CO2. The confluent cells were either trypsinized with 0.05%-trypsin-0.53 mM EDTA (HEK-293 cell line) or mechanically removed by cell scrapers (J774A.1 cell line). […] The cells were incubated with tested compounds for another 24 h at 37° C. with 5% CO2. Cell survival was assessed by resazurin assay. Each well was treated with resazurin (10 μL of a 25 mg/L solution) for 6 h. […] Dead cells remain purple/blue. The percentage of survival rate was calculated by using the following formula: [(test value)/(control value)×100].

Row | Structure (SMILES) | MIC-0 [1] | MIC-0 [2] | MIC-0 [3] | MIC-0 [4] | MIC-0 [5] | MIC-0 [6] | MIC-0 [7] | MIC-0 [8] | concentration without any toxicity ([9]; J774, 24 h) | cell death [9]
1 | CC(C)(C)n1sc2ccccc2c1=O [Compound 3g] | 1.56 µg/mL (≈ 7.53 µM) | 1.56 µg/mL (≈ 7.53 µM) | 1.56 µg/mL (≈ 7.53 µM) | 1.56 µg/mL (≈ 7.53 µM) | 0.78 µg/mL (≈ 3.76 µM) | 1.56 µg/mL (≈ 7.53 µM) | 0.78 µg/mL (≈ 3.76 µM) | 1.56 µg/mL (≈ 7.53 µM) | up to 5 μg/mL | –
2 | CCCCCn1sc2ccccc2c1=O [Compound 3a] | 0.39 µg/mL (≈ 1.76 µM) | 1.56 µg/mL (≈ 7.05 µM) | 0.78 µg/mL (≈ 3.52 µM) | 0.78 µg/mL (≈ 3.52 µM) | 1.56 µg/mL (≈ 7.05 µM) | 1.56 µg/mL (≈ 7.05 µM) | 0.78 µg/mL (≈ 3.52 µM) | 0.78 µg/mL (≈ 3.52 µM) | – | approximately 50%
3 | CCCCCCn1sc2ccccc2c1=O [Compound 3b] | 1.56 µg/mL (≈ 6.63 µM) | 1.56 µg/mL (≈ 6.63 µM) | 0.78 µg/mL (≈ 3.31 µM) | 1.56 µg/mL (≈ 6.63 µM) | 1.56 µg/mL (≈ 6.63 µM) | 1.56 µg/mL (≈ 6.63 µM) | 0.78 µg/mL (≈ 3.31 µM) | 0.78 µg/mL (≈ 3.31 µM) | – | approximately 50%

Source: patent publication US10544112B2, “Identification of ebsulfur analogues with broad-spectrum antifungal activity” (priority 2017, dated 2020)
